The text below walks through data of patent US11452725B2, “Chiral diaryl macrocycles and uses thereof” (TURNING POINT THERAPEUTICS, INC., priority 2015, dated 2022).

The structures appear in SMILES notation.

Assay [1] deals with Ba/F3 EML4-ALK G1202R tumors. Put plainly: Ba/F3 EML4-ALK G1202R subcutaneous xenograft model. Conditions: 75 mg/kg BID orally, 17 days. Type of assay: in vivo, SCID/Beige mice.
The subject of another assay is EGFR. Put plainly: EGFR expression by immunoblotting in H2228 cells. It counts as cell-based, human. Conditions: 4 and 24 hour exposure, 0-1000 nM. How it is done:
(§1) NSCLC cell line H2228 (harboring endogenous EML4-ALK fusion gene) was cultured in RPMI medium supplemented with 10% fetal bovine serum and 100 U/mL of penicillin/streptomycin. Ba/F3 and NIH3T3 cells stably expressing ROS1, or TRKA, or TRKB, or TRKC (WT or mutant) were cultured as mentioned above. […] Cells were collected after treatment and lysed in RIPA buffer (50 mM Tris, pH 7.4, 150 mM NaCl, 1% NP-40, 0.5% Deoxycholate, 0.1% SDS) supplemented with 10 mM EDTA, 1× Halt protease and phosphatase inhibitors (Thermo Scientific). Protein lysates (approximately 20 μg) was resolved on 4-12% Bolt Bis-Tris precasted gels with MES running buffer (Life Technologies), transferred to nitrocellulose membranes using Trans-Blot Turbo Transfer System (Bio-Rad) and detected with antibodies targeting phosphorylated phosphorylated ROS1 and total ROS1 (Cell Signaling Technology), phosphorylated TRK A/B (Cell Signaling Technology), total TRKA antibody (Santa Cruz Biotechnology), phosphorylated SRC Y416 (Cell Signaling Technology), total SRC (Cell Signaling Technology), phosphorylated FAK Y576/577 (Cell Signaling Technology), total FAK (Cell Signaling Technology), phosphorylated paxillin Y118 (Cell Signaling Technology), total paxillin (Cell Signaling Technology), phosphorylated EGFR and total EGFR, CD44, and Tubulin (Sigma). […]

In assay [2] the test system is Ba/F3 EML4-ALK F1174C cell line. The assay can be described thus: Cell proliferation assay (CellTiter-Glo). It counts as cell-based. Conditions: Mus musculus, 72 hours. (ATP-based viability assays read luminescence as a measure of living cells.)
In the next assay the test system is SET-2 cell line. Put plainly: Cell proliferation assay (CellTiter-Glo). Type of assay: cell-based. The note with it: Homo sapiens, 72 hours, JAK2 V617F mutation.
The target of a further assay is T1, SNARK (Homo sapiens, UniProt Q9H093).
T1 construct: purchased Reaction Biology Corporation
Put plainly: Biochemical kinase assay (Reaction Biology). Conditions: 10 μM ATP.

Another assay concerns the target FAK (Homo sapiens, UniProt Q05397). Put plainly: Immunoblotting cellular kinase phosphorylation assay, NCI-H2228 cells. Type of assay: cell-based. The note with it: 4 hours treatment; read-out: FAK phosphorylation of NCI-H2228 cell line IC50. How it is done: as §1
A general note: In western blotting, separated proteins are transferred to a membrane and probed.

The test system of assay [3] is Ba/F3 TEL-TRKB (ETV6-TRKB) G639R cell line. The assay can be described thus: Cell proliferation assay (CellTiter-Glo). It counts as cell-based. Conditions: Mus musculus, BaF3; 72 hours.
A further assay concerns the target T2, DDR2 (Homo sapiens, UniProt Q16832).
T2 construct: purchased Reaction Biology Corporation (contract assay)
The assay can be described thus: Biochemical kinase assay (Reaction Biology). Conditions: 10 μM ATP.

The test system of another assay is Karpas 299 tumors. Put plainly: Karpas 299 ALCL subcutaneous xenograft model. Type of assay: in vivo, SCID/Beige mice. Conditions: 50 mg/kg BID orally, seven days.
The subject of a further assay is NCI-H2228 cell line. Put plainly: Cell proliferation assay (CellTiter-Glo). It counts as cell-based. Conditions: Homo sapiens, 72 hours, EML4-ALK fusion gene.
Another assay deals with T3, BLK (Homo sapiens, UniProt P51451).
T3 construct: purchased Reaction Biology Corporation (contract assay)
The assay can be described thus: Biochemical kinase assay (Reaction Biology). Conditions: 10 μM ATP.

For the next assay, the system named is KM12 cell line. The assay can be described thus: cells. Conditions: Homo sapiens, KM12, 72 h, read-out: Cell proliferation of KM12 cell line IC50.

T1 sequence (Q9H093 whole entry): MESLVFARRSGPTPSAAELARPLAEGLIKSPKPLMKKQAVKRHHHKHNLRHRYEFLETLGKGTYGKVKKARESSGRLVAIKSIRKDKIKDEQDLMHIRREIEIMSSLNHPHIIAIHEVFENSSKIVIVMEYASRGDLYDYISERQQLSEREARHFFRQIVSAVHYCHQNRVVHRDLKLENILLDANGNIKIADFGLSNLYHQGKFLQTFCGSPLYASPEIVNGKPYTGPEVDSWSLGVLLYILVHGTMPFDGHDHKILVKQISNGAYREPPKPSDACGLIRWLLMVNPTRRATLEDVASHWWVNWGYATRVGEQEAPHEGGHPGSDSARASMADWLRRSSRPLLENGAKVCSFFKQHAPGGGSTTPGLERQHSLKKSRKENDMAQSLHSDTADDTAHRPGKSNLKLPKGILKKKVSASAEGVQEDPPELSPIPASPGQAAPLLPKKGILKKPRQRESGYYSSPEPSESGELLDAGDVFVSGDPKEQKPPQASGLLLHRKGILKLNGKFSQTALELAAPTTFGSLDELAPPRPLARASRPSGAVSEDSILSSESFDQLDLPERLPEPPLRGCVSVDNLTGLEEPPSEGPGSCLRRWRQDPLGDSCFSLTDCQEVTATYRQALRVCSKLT
Sequence of FAK (Q05397 whole entry): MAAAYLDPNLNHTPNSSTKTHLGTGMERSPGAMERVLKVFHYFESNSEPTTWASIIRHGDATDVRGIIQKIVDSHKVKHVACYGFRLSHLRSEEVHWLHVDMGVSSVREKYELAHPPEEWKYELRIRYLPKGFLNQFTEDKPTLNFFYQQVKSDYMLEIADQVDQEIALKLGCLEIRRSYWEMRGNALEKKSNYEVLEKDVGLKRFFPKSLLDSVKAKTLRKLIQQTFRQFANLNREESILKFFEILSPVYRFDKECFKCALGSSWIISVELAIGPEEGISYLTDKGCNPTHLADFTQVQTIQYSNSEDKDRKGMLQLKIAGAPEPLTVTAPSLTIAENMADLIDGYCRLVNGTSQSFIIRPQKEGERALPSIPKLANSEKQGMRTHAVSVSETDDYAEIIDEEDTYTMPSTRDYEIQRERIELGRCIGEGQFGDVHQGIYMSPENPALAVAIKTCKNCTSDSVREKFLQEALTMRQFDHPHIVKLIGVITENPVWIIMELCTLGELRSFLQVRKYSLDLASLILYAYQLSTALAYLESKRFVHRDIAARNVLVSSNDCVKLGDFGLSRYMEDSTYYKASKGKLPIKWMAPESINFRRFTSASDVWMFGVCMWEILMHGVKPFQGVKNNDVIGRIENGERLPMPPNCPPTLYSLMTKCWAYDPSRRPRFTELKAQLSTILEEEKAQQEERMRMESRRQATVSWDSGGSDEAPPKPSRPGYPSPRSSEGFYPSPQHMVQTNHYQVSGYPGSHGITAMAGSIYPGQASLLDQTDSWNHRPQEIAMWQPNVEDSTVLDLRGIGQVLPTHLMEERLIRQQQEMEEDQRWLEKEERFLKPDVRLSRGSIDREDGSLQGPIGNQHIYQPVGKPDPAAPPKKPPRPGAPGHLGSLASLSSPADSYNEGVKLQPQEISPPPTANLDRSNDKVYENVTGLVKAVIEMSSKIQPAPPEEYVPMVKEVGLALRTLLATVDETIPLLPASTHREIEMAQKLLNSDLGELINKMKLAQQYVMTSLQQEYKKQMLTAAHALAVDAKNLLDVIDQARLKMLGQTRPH
T3 sequence (P51451 whole entry): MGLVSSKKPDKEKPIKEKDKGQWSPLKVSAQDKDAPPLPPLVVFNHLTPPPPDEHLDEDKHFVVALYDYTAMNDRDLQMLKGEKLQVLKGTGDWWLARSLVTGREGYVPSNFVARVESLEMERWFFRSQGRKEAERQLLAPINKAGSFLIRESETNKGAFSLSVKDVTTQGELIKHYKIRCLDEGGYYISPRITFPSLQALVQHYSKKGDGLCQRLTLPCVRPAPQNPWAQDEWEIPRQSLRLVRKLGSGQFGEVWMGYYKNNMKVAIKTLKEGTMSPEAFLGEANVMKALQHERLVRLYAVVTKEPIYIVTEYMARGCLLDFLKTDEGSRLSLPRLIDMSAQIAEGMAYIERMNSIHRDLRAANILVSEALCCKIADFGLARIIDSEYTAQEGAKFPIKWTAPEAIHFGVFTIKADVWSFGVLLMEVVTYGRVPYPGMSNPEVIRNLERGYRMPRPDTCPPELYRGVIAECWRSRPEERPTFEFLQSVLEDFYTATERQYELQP
T2 sequence (Q16832 22-855): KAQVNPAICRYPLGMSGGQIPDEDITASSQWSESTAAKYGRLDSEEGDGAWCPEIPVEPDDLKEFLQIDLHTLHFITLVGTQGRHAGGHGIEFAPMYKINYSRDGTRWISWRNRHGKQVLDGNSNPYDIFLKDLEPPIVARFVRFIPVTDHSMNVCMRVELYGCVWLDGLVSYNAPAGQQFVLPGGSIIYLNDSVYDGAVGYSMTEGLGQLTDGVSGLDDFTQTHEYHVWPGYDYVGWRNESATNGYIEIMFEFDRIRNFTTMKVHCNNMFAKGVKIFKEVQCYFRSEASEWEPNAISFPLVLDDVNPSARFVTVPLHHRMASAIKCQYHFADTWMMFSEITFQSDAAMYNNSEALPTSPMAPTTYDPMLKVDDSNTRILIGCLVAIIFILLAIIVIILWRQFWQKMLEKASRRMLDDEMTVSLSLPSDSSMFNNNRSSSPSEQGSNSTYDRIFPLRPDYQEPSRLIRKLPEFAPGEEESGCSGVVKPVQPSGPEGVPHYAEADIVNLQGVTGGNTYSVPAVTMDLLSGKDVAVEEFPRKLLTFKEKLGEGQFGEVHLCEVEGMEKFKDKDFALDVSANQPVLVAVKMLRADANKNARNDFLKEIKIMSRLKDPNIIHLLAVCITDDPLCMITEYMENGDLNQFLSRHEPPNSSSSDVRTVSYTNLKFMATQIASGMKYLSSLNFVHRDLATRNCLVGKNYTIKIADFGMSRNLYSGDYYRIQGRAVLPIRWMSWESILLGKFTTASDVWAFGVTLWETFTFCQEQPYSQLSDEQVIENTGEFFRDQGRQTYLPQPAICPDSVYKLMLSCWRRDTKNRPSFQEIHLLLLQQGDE

As for `C[C@H]1CNC(=O)c2cnn3ccc(nc23)N[C@H](C)c2cc(F)ccc2O1` [Compound 1, (7S,13R)-11-fluoro-7,13-dimethyl-6,7,13,14-tetrahydro-1,15-ethenopyrazolo[4,3-f][1,4,8,10]benzoxatriazacyclotridecin-4(5H)-one], the “mice exhibiting tumor regression” value (in assay [1]; in the assay with Karpas 299 tumors) was 4 of 8 in each case. Also, the EGFR expression result with EGFR is “down-regulated EGFR expression in a dose- and time-dependent manner”. The IC50 in assay [2] was determined as 54 nM; in the assay on SET-2 cell line, 169 nM; against SNARK, 13 nM; at FAK, 100 nM; in assay [3], 0.6 nM; at DDR2, 23 nM. The figures for the IC50 in the assay on NCI-H2228 cell line, on BLK and with KM12 cell line were 73 nM, 32.3 nM and 0.3 nM, respectively.
